Data as given in patent US20100087459A1, “FORMS OF LAPATINIB COMPOUNDS AND PROCESSES FOR THE PREPARATION THEREOF” (priority 2008, published 2010).

Assay: stability of crystalline Form M1 in commonly used solvents and at high temperature
Type: physicochemical
Details: solvents used for production and especially for formulation of the pharmaceutical product

stability in commonly used solvents: high stability
Substance: Lapatinib monotosylate [Form M1]
